Square brackets hold non-standard residues; d marks the D form. Peptide text beside a SMILES is read from it. * marks the point of attachment. Oleoyl = CCCCCCCC/C=C\CCCCCCCC(=O)*; Dap = NC[C@H](N)C(=O)O
How the values were obtained:
iMSCs [1] = experiment: Cell viability after pGFP transfection (cell number vs untransfected control); assay type: cell-based; settings: pGFP complexes, LP1 100 µg/mL, LP2 40 µg/mL
Procedure: In parallel, in situ transfection of iMSCs was evaluated by confocal microscopy (Nikon, Tokyo, Japan) based on GFP expression (Figure 7a). Transfection efficiency was quantified using ImageJ software by calculating the percentage of GFP‐positive cells relative to the total number of cells in four randomly selected fields per condition (Figure 7b). Cell viability was determined by comparing the number of cells in each sample with that of the untransfected control (Figure 7c).

iMSCs [2] = experiment: Cell viability (CCK8) after lipopeptide/placZ transfection; assay type: cell-based; settings: 24 h
Procedure: (§1) Lipopeptide (LP1 or LP2) was dissolved in MeOH in order to create a lipid film with a desired concentration. Afterwards, the organic solvent was removed under nitrogen flow, obtaining the corresponding lipid film. The film was then hydrated with 1 mL of OptiMEM Reduced Serum Medium (1X). Lipopeptide/pDNA complexes were then formed by mixing placZ or pGFP plasmid (742 ng) with the corresponding lipopeptide (LP1 or LP2) solution to obtain various concentrations (2.5–50 µg/mL), thus being able to carry out different analysis. All mixtures were allowed to complex for 30 min at rt before being used in different experiments. Lipofectamine was used as positive control; their corresponding lipoplexes were prepared with the same plasmid concentrations and the recommended reagent volume, according to the manufacturer instructions.
(§2) HEK 293T (75000 cells/well in 48 well‐plates) or iMSCs (10000 cells/well in 96 well‐plates) were allowed to attach for 24 h at 37 °C before the experiments. Then, cells were transfected with lipopeptide (LP1 or LP2)/pDNA (placZ or pGFP) complexes and incubated for 24 h at 37 °C and 5% CO2. Untransfected cells (negative control) or cells transfected with Lipofectamine (positive control) were assessed in parallel. All conditions were evaluated by quadrupled.
(§3) Viability of the cell monolayers was monitored at 24 h using the CCK8 reagent, following the supplier's instructions (Neo Biotech, France). Briefly, cells were washed with 1X PBS (pH 7.4), and then incubated with CCK8 reagent (100 µL; 1:10 dilution in DMEM) for at least 2 h at 37 °C and 5% CO2. The absorbance (Abs) signal at 450 nm was measured in a Sinergy HTX Plate reader. Cell viability was obtained with the following formula: Cellviability%=Abssample450nm/Abscontrol450nm×100

HEK 293T cells = experiment: as above; assay type: cell-based; settings: 24 h
Procedure: as §1, §2, §3

Row | Compound | cytotoxicity / cell viability compared with LPF (iMSCs [1]) | cell viability (iMSCs [2]) | cell viability (HEK 293T cells) | Z-potential
1 | CCCCCCCC/C=C\CCCCCCCC(=O)NCCCC[C@H](NC(=O)CCCCCCC/C=C\CCCCCCCC)C(=O)N[C@@H](CCCCN)C(=O)N[C@@H](CCCCN)C(=O)N[C@@H](CCCCN)C(=O)O [LP2, Dioleoyl‐KKKK] (Oleoyl-K(Oleoyl)KKK-OH) | higher than in the LPF group | above 75% | above 75% | 25.2 mV
2 | CCCCCCCC/C=C\CCCCCCCC(=O)NC[C@H](NC(=O)CCCCCCC/C=C\CCCCCCCC)C(=O)N[C@@H](CCCCN)C(=O)N[C@@H](CCCCN)C(=O)N[C@@H](CCCCN)C(=O)O [LP1, Dioleoyl‐DapKKK] (Oleoyl-[Dap](Oleoyl)KKK-OH) | higher cytotoxicity than LPF | above 75% | above 75% | 25.2 mV
